Assay results taken from US20250382344A1, “Soluble GLP1/GIP/NPY2 Receptor Triple Agonists” (Boehringer Ingelheim International GmH, priority 2024, published 2025).
Read-outs that look alike come from different tables or passages of the source.

Legend:
hNPY2R = target: T1, hNPY2R (Homo sapiens, UniProt P49146); assay: hNPY2R CreLuc assay in 0.5% and 100% plasma (HEK-293 CRE-luciferase reporter cells); type: cell-based; conditions: HEK-293 reporter cells
T1 construct: expressed in transfected cells; host or cells: HEK-293 CRE-luciferase reporter cells
T1 sequence (P49146 1-381): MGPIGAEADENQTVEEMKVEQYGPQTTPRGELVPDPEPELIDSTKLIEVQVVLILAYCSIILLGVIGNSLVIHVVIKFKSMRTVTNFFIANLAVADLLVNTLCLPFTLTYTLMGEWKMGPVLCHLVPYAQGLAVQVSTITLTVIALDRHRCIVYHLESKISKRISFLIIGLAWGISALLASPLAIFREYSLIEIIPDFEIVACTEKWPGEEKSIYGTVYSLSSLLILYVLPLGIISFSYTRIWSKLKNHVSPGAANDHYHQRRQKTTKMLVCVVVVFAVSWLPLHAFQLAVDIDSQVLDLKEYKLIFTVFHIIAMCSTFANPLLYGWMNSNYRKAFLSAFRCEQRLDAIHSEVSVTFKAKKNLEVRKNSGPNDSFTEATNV
Description: CHO and HEK-293 recombinant cell lines express a luciferase reporter gene under control of the CAMP responsive element (CRE). As a second recombinant protein the GLP-1 and NPY2 receptors were expressed in the reporter gene HEK cells, and the GIP receptor was expressed in the reporter gene CHO cells, respectively. Stimulation of these recombinant cells with an agonist leads to an increase of intracellular CAMP levels. In the presence of CAMP, the transcription factor CRE binding protein (CREB) binds to the CRE and to the CREB binding protein (CBP), which leads to transcription of the luciferase reporter gene. Peptides upon serial-dilution in 100% DMSO were transferred into 384-well assay plates with 5 μl pre-dispensed assay buffer (1×HBSS, 20 mM HEPES, pH7.4 supplemented with 0.5% human plasma) using acoustic dispensing on a Labcyte ECHO. Cryo-preserved transgenic reporter gene cells were thawed in assay buffer. 20 μl (10.000 cells/well) were added to the plate with the peptides and incubated for 4 hours at 37° C. in a humidified incubator. Following incubation, assay plates are equilibrated to room temperature, followed by addition of 25 μl of Bright-Glo™ Luciferase reagent, incubation at room temperature for 10 minutes and analysis of luminescence (Envision Reader). […] EC50 values were calculated by non-linear regression using sigmoid concentration-response with variable slope.
The same assays were run in the presence of 100% plasma with no additional buffer constituents.

[1] = Solubility in 0.1 M phosphate buffer at pH 7; type: physicochemical; conditions: 0.1 M phosphate buffer at pH 7, 10 mg/mL final peptide concentration, shaking 2 hours at room temperature, peptides as TFA-salts; measured sample pH 6.5-7.0
hGIPR = target: T2, hGIPR (Homo sapiens, UniProt P48546); assay: hGIPR CreLuc assay in 0.5% and 100% plasma (CHO CRE-luciferase reporter cells); type: cell-based; conditions: 0.5% human plasma, read-out: hGIPR 0.5% hP
T2 construct: expressed in transfected cells; host or cells: CHO CRE-luciferase reporter cells
T2 sequence (P48546 22-466): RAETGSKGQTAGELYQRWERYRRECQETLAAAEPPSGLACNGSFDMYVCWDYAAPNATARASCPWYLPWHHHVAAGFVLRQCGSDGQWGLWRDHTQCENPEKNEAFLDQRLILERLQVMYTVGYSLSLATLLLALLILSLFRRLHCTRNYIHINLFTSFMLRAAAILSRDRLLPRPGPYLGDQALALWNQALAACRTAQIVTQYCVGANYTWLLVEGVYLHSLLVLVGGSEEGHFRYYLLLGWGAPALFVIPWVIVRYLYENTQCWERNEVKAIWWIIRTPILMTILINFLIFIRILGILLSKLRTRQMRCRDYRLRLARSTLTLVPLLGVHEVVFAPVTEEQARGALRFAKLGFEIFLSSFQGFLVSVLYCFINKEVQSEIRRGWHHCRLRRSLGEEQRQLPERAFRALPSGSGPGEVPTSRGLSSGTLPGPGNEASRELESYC

[2] = 100% human plasma, read-out: hNPY2R 100% hP

EC50 (hNPY2R; [2]) [nM]	solubility at 2 h [1] [µg/mL]	EC50 (hGIPR) [nM]	EC50 (hNPY2R; 0.5% human plasma, read-out: hNPY2R 0.5% hP) [nM]	Compound
125	10000	0.5	–	CC[C@H](C)[C@H](NC(=O)[C@H](CC(C)C)NC(=O)[C@H](Cc1c[nH]cn1)NC(=O)[C@H](CCCNC(=N)N)NC(=O)[C@@H](NC(=O)[C@H](Cc1ccccc1)NC(=O)[C@H](C)NC(=O)C(C)(C)NC(=O)[C@H](CCC(N)=O)NC(=O)[C@H](C)NC(=O)[C@H](CCC(N)=O)NC(=O)[C@H](CCCCN)NC(=O)[C@H](CCC(=O)O)NC(=O)[C@H](CC(C)C)NC(=O)C(C)(C)NC(=O)[C@@H](NC(=O)[C@H](CO)NC(=O)[C@H](Cc1ccc(O)cc1)NC(=O)[C@H](CC(=O)O)NC(=O)[C@H](CO)NC(=O)[C@@H](NC(=O)[C@H](Cc1ccccc1)NC(=O)[C@@H](NC(=O)CNC(=O)[C@H](CCC(=O)O)NC(=O)C(C)(C)NC(=O)[C@@H](N)Cc1ccc(O)cc1)[C@@H](C)O)[C@@H](C)O)[C@@H](C)CC)C(C)C)C(=O)N[C@@H](CC(N)=O)C(=O)N[C@@H](CCCCNC(=O)COCCOCCNC(=O)CC[C@H](NC(=O)CC[C@H](NC(=O)CC[C@H](NC(=O)CC[C@H](NC(=O)CC[C@H](NC(=O)CC[C@H](NC(=O)CCCCCCCCCCCCCCCCCCC(=O)O)C(=O)O)C(=O)O)C(=O)O)C(=O)O)C(=O)O)C(=O)O)C(=O)NC(C)(C)C(=O)N[C@H](C(=O)N[C@@H](CCCNC(=N)N)C(=O)N[C@@H](CCC(N)=O)C(=O)N[C@@H](CCCNC(=N)N)C(=O)N[C@@H](Cc1ccc(O)cc1)C(N)=O)[C@@H](C)O [Compound 99, Y-Aib-E-G-T-F-T-S-D-Y-S-I-Aib-L-E-K-Q-A-Q-Aib-A-F-V-R-H-L-I-N-K(1,3)-Aib-T-R-Q-R-Y-NH2.C20DA-gGlu-gGlu-gGlu-gGlu-gGlu-gGlu-OEG(1,2)]
20.3	3900	0.7	13.3	CC[C@H](C)[C@H](NC(=O)[C@H](CO)NC(=O)[C@H](Cc1ccc(O)cc1)NC(=O)[C@H](CC(=O)O)NC(=O)[C@H](CO)NC(=O)[C@@H](NC(=O)[C@H](Cc1ccccc1)NC(=O)[C@@H](NC(=O)CNC(=O)[C@H](CCC(=O)O)NC(=O)C(C)(C)NC(=O)[C@@H](N)Cc1ccc(O)cc1)[C@@H](C)O)[C@@H](C)O)C(=O)NC(C)(C)C(=O)N[C@@H](CC(C)C)C(=O)N[C@@H](CCC(=O)O)C(=O)N[C@@H](CCCCN)C(=O)N[C@@H](CCC(N)=O)C(=O)N[C@@H](C)C(=O)N[C@@H](CCC(N)=O)C(=O)NC(C)(C)C(=O)N[C@@H](C)C(=O)N[C@@H](Cc1ccccc1)C(=O)N[C@H](C(=O)N[C@@H](CCCNC(=N)N)C(=O)N[C@@H](Cc1c[nH]cn1)C(=O)N[C@@H](CC(C)C)C(=O)N[C@@H](CC(C)C)C(=O)N[C@@H](CC(N)=O)C(=O)N[C@@H](CCCCNC(=O)[C@@H](N)CCCCNC(=O)CC[C@H](NC(=O)CC[C@H](NC(=O)CC[C@H](NC(=O)CC[C@H](NC(=O)CC[C@H](NC(=O)CC[C@H](NC(=O)CCCCCCCCCCCCCCCCC(=O)O)C(=O)O)C(=O)O)C(=O)O)C(=O)O)C(=O)O)C(=O)O)C(=O)NC(C)(C)C(=O)N[C@H](C(=O)N[C@@H](CCCNC(=N)N)C(=O)N[C@@H](CCC(N)=O)C(=O)N[C@@H](CCCNC(=N)N)C(=O)N[C@@H](Cc1ccc(O)cc1)C(N)=O)[C@@H](C)O)C(C)C [Compound 107, Y-Aib-E-G-T-F-T-S-D-Y-S-I-Aib-L-E-K-Q-A-Q-Aib-A-F-V-R-H-L-L-N-K(1,3)-Aib-T-R-Q-R-Y-NH2.C18DA-gGlu-gGlu-gGlu-gGlu-gGlu-gGlu-eLys(1,2)]
